PubChem BioAssay (NCI)
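Exposure lasted 48 hours, with cells grown in 96-well plates and compounds tested at five concentrations. Abbreviation: GI50, concentration required for 50% inhibition of growth. TGI is the concentration that stops growth completely.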

Key:
Test in all cases: inhibition of tumour cell growth, NCI panel, 48 h
A498 renal = tested on: A498 renal
CAKI-1 renal = tested on: CAKI-1 renal
DLD-1 colon = tested on: DLD-1 colon
DMS 273 small cell lung = tested on: DMS 273 small cell lung
HL-60(TB) leukemia = tested on: HL-60(TB) leukemia
NCI-H23 lung = tested on: NCI-H23 lung
OVCAR-5 ovarian = tested on: OVCAR-5 ovarian
SN12C renal = tested on: SN12C renal
SW-620 colon = tested on: SW-620 colon
MDA-MB-231 breast = tested on: MDA-MB-231 breast

Structure (SMILES)	TGI (A498 renal)	TGI (CAKI-1 renal)	TGI (DLD-1 colon)	TGI (DMS 273 small cell lung)	TGI (HL-60(TB) leukemia)	TGI (NCI-H23 lung)	TGI (OVCAR-5 ovarian)	TGI (SN12C renal)	TGI (SW-620 colon)	GI50 (A498 renal)	GI50 (CAKI-1 renal)	GI50 (HL-60(TB) leukemia)	GI50 (MDA-MB-231 breast)	TGI (MDA-MB-231 breast)	GI50 (NCI-H23 lung)	GI50 (OVCAR-5 ovarian)	GI50 (SN12C renal)	GI50 (SW-620 colon)
COc1ccccc1NC(=O)C1=C(C)NC(C)=C(C(=O)Nc2ccccc2OC)C1c1cccc2ccccc12	> 100 µM	> 100 µM	> 100 µM	> 100 µM	> 100 µM	> 100 µM	> 100 µM	> 100 µM	> 100 µM	–	–	–	–	–	–	–	–	–
CCOC(=O)C(=O)Nc1ccccc1OCC	–	> 100 µM	> 100 µM	–	> 100 µM	> 100 µM	> 100 µM	> 100 µM	> 100 µM	–	–	–	–	–	–	–	–	–
O=C(Oc1ccc2c(-c3ccccc3)c(C(=O)Nc3ccc(Cl)cc3)c(=O)oc2c1)c1ccccc1	–	–	> 100 µM	> 100 µM	> 100 µM	> 100 µM	–	> 100 µM	> 100 µM	–	–	–	–	–	–	–	–	–
ClC1c2ccccc2C2(c3ccccc3)OOC1(c1ccccc1)O2 (stereo not given)	4.45 µM	6.19 µM	–	3.17 µM	0.309 µM	3.57 µM	11.2 µM	2.9 µM	2.96 µM	–	–	–	–	–	–	–	–	–
O=C1CCCC(O)=C1SC1=C(O)CCCC1=O	> 100 µM	> 100 µM	> 100 µM	> 100 µM	> 100 µM	> 100 µM	> 100 µM	> 100 µM	> 100 µM	–	–	–	–	–	–	–	–	–
CN(C)CCNC(=O)c1c2ccccc2cc2ccccc12	> 100 µM	–	> 100 µM	> 100 µM	88.5 µM	> 100 µM	> 100 µM	> 100 µM	> 100 µM	–	–	–	–	–	–	–	–	–
O=c1ccn(C2(CO)C=C(CO)C(O)C2O)c(=O)[nH]1 (stereo not given)	> 25.7 µM	> 25.7 µM	> 25.7 µM	> 25.7 µM	> 25.7 µM	–	–	> 25.7 µM	> 25.7 µM	–	–	–	–	–	–	–	–	–
CC(=O)Nc1ccc(-c2csc(Nc3cccc(-c4csc(-c5ccccc5)n4)c3)n2)cc1	> 50 µM	> 50 µM	–	–	> 50 µM	> 50 µM	> 50 µM	27.6 µM	> 50 µM	46 µM	17.5 µM	29.7 µM	13.5 µM	37.9 µM	16.5 µM	> 50 µM	8.2 µM	> 50 µM
Nc1nccc2c1ccn2-c1cccc(NC(=O)c2ccc(N3CCOCC3)c(C(F)(F)F)c2)c1	2.05 µM	> 19 µM	–	–	7.83 µM	14.7 µM	> 50 µM	> 50 µM	> 50 µM	0.304 µM	0.531 µM	1.09 µM	0.874 µM	2.86 µM	1.16 µM	1.84 µM	1.91 µM	0.49 µM
CCOC(=O)c1ccccc1SC(C[N+](=O)[O-])c1ccccc1 (stereo not given)	16 µM	31.2 µM	–	–	27.9 µM	35.1 µM	25.3 µM	20.8 µM	4.7 µM	3.63 µM	14.8 µM	5.96 µM	9.1 µM	21.8 µM	12.3 µM	12.3 µM	8.17 µM	2.04 µM
COc1cc(OC)c(F)c(COc2cnc(Nc3cnn(CCO)c3)nc2)c1F	0.138 µM	2.87 µM	–	–	0.702 µM	> 100 µM	> 100 µM	> 100 µM	> 100 µM	< 0.0107 µM	0.394 µM	0.245 µM	1.38 µM	7.64 µM	1.86 µM	2.08 µM	1.59 µM	0.412 µM
CCCCCCCCNC(C)C(O)c1ccc(SC(C)C)cc1 (stereo not given)	2.86 µM	3.08 µM	–	–	4.07 µM	3.13 µM	3.23 µM	3.13 µM	3.29 µM	1.5 µM	1.54 µM	2.2 µM	1.8 µM	3.31 µM	1.58 µM	1.76 µM	1.57 µM	1.74 µM
CC[C@H](C)[C@H](NC(=O)NC(C)(C)C)C(=O)N(C)[C@H](C[C@@H](OC(C)=O)c1nc(C(=O)N[C@@H](Cc2ccccc2)C[C@H](C)C(=O)OC)cs1)C(C)C	4.31 µM	> 25 µM	–	–	1.56 µM	> 25 µM	> 25 µM	> 25 µM	> 25 µM	0.154 µM	1.12 µM	0.374 µM	0.726 µM	2.98 µM	0.825 µM	2.4 µM	1.07 µM	0.646 µM
O=C(Cc1ccc(Nc2ccnc(C(F)(F)F)c2)cc1)Nc1cc(Cl)ccc1O	10.6 µM	43.7 µM	–	–	5.35 µM	13.3 µM	52.1 µM	38.5 µM	21.4 µM	3.03 µM	13.7 µM	1.7 µM	4.92 µM	24.2 µM	2.86 µM	17.8 µM	9.09 µM	6.23 µM
O=C(c1ccco1)c1nc2cc(C(F)(F)F)ccc2[n+]([O-])c1C(F)(F)F	> 100 µM	> 100 µM	–	–	> 100 µM	> 100 µM	> 100 µM	> 100 µM	> 100 µM	39.3 µM	> 100 µM	78.1 µM	68.8 µM	> 100 µM	35.6 µM	31.5 µM	65.1 µM	37.5 µM
Oc1ccc(Oc2cnc3cc(Cl)ccc3n2)cc1	> 100 µM	68.2 µM	–	–	> 100 µM	> 100 µM	> 100 µM	> 100 µM	> 100 µM	25.4 µM	21.8 µM	2.25 µM	24.5 µM	> 100 µM	52.8 µM	> 100 µM	34.2 µM	38.2 µM
O=C1NC(=O)[C@@H](c2c[nH]c3ccccc23)[C@@H]1c1c[nH]c2ccccc12	> 25 µM	> 25 µM	–	–	> 25 µM	> 25 µM	> 25 µM	> 25 µM	> 25 µM	> 25 µM	> 25 µM	> 25 µM	> 25 µM	> 25 µM	> 25 µM	> 25 µM	> 25 µM	> 25 µM
Cc1ccc2nc3c(n2c1)C(=O)C(=O)c1ccccc1-3	2.71 µM	2.71 µM	–	–	0.602 µM	0.576 µM	0.391 µM	0.303 µM	0.411 µM	1.37 µM	1.28 µM	0.17 µM	0.505 µM	3.07 µM	0.217 µM	0.202 µM	0.153 µM	0.198 µM
